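Grown in 96-well plates, cells were treated for 48 hours with each compound at five concentrations. Insufficient inhibition: endpoint recorded as highest concentration tested. TGI: concentration producing complete growth inhibition.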
Legend:
Assay in all cases: NCI tumour cell line growth inhibition, 48 h
[1] = system: SNB-78 CNS
[2] = system: KM20L2 colon
[3] = system: DLD-1 colon
[4] = system: DMS 273 small cell lung
[5] = system: P388/ADR leukemia
[6] = system: HOP-18 NSCLC
[7] = system: P388 leukemia
[8] = system: SN12K1 renal
[9] = system: XF 498 CNS
[10] = system: LXFL 529 NSCLC

CCCCCCCCCCCCOCCCOP(=O)([O-])OCC[N+](C)(C)C
TGI [1]: > 89.5 µM
TGI [2]: > 100 µM
TGI [3]: > 95.8 µM
TGI [4]: 35.5 µM
TGI [5]: > 100 µM
TGI [6]: > 100 µM
TGI [7]: 97.7 µM
TGI [8]: > 100 µM
TGI [9]: > 89.4 µM

CCOC(=O)CC1(c2cccc3ccccc23)OC(=O)c2ccccc21 (stereo not given)
TGI [1]: > 100 µM
TGI [2]: > 100 µM
TGI [3]: > 100 µM
TGI [4]: > 100 µM
TGI [10]: > 100 µM
TGI [6]: > 100 µM

CC(C)C1=CC23CCC4C(C)(C(=O)O)CCCC4(C)C2CC1C1C(=O)N(c2ccccc2)C(=O)C13 (stereo not given)
TGI [2]: > 100 µM
TGI [3]: > 100 µM
TGI [4]: > 100 µM
TGI [10]: > 100 µM
TGI [6]: > 100 µM
TGI [9]: > 100 µM

CC(C)C(N)=O
TGI [1]: > 5000 µM
TGI [3]: > 5000 µM
TGI [4]: > 5000 µM
TGI [10]: > 5000 µM
TGI [6]: > 5000 µM

c1csc(C[N+]23CN4CN(CN(C4)C2)C3)c1
TGI [2]: 55.7 µM
TGI [3]: > 100 µM
TGI [4]: 41.8 µM
TGI [10]: 43.1 µM

CC(=O)NC1=C[C@@H]([C@H]2COC(C)(C)O2)OC1=O
TGI [1]: > 100 µM
TGI [2]: > 100 µM
TGI [3]: > 100 µM
TGI [4]: > 100 µM
TGI [5]: > 100 µM
TGI [6]: > 100 µM
TGI [7]: > 100 µM
TGI [8]: > 100 µM
TGI [9]: > 100 µM

O=C1CCCCCCCCCCC1CN1CCCCC1 (stereo not given)
TGI [1]: > 100 µM
TGI [2]: > 100 µM
TGI [3]: > 100 µM
TGI [4]: > 100 µM
TGI [10]: > 100 µM
TGI [9]: > 100 µM
